These compounds were tested against human Lck kinase (UniProt P06239) (assay: Lck inhibition assay (A: radioactivity-based or B: spectrophotometric coupled-enzyme assay)). Settings: read-out: Lck Activity (Ki rating).
Type: biochemical
Protocol: The compounds were evaluated as inhibitors of human Lck kinase using either a radioactivity-based assay or spectrophotometric assay.
The compounds were assayed as inhibitors of full length bovine thymus Lck kinase (from Upstate Biotechnology, cat. no. 14-106) expressed and purified from baculo viral cells. Lck kinase activity was monitored by following the incorporation of ^33p from ATP into the tyrosine of a random poly Glu-Tyr polymer substrate of composition, Glu:Tyr=4:1 (Sigma, cat. no. P-0275). The following were the final concentrations of the assay components: 0.025 M HEPES, pH 7.6, 10 mM MgCl2, 2 mM DTT, 0.25 mg/ml BSA, 10 μM ATP (1-2 μCi ^33P-ATP per reaction), 5 mg/ml poly Glu-Tyr, and 1-2 units of recombinant human […] kinase. In a typical assay, all the reaction components with the exception of ATP were pre-mixed and aliquoted into assay plate wells. Inhibitors dissolved in DMSO were added to the wells to give a final DMSO concentration of 2.5%. The assay plate was incubated at 30 C. for 10 min before initiating the reaction with ^33P-ATP. After 20 min of reaction, the reactions were quenched with 150 μl of 10% trichloroacetic acid (TCA) containing 20 mM Na3PO4. The quenched samples were then transferred to a 96-well filter plate (Whatman, UNI-Filter GF/F Glass Fiber Filter, cat no. 7700-3310) installed on a filter plate vacuum manifold. Filter plates were washed four times with 10% TCA containing 20 mM Na3PO4 and then 4 times with methanol. 200 μl of scintillation fluid was then added to each well. The plates were sealed and the amount of radioactivity associated with the filters was quantified on a TopCount scintillation counter. The radioactivity incorporated was plotted as a function of the inhibitor concentration. The data was fitted to a competitive inhibition kinetics model to get the Ki for the compound.
The ADP produced from ATP by the human recombinant Lck kinase-catalyzed phosphorylation of poly Glu-Tyr substrate was quanitified using a coupled enzyme assay (Fox et al (1998) Protein Sci 7, 2249). In this assay one molecule of NADH is oxidised to NAD for every molecule of ADP produced in the kinase reaction. The disappearance of NADH can be conveniently followed at 340 nm.
The following were the final concentrations of the assay components: 0.025 M HEPES, pH 7.6, 10 mM MgCl2, 2 mM DTT, 5 mg/ml poly Glu-Tyr, and 50 nM of recombinant human Lck kinase. Final concentrations of the components of the coupled enzyme system were 2.5 mM phosphoenolpyruvate, 200 μM NADH, 30 μg/ml pyruvate kinase and 10 μg/ml lactate dehydrogenase.
In a typical assay, all the reaction components with the exception of ATP were pre-mixed and aliquoted into assay plate wells. Inhibitors dissolved in DMSO were added to the wells to give a final DMSO concentration of 2.5%. The assay plate was incubated at 30° C. for 10 min before initiating the reaction with 150 μM ATP. The absorbance change at 340 nm with time, the rate of the reaction, was monitored on a molecular devices plate reader. The data of rate as a function of the inhibitor concentration was fitted to competitive inhibition kinetics model to get the Ki for the compound.

SMILES	Ki
CSc1sc(-c2ccnc(Nc3cccc(OCCCN4CCCC(O)C4)c3)n2)c(C2CCCCC2)c1C#N (centres unmarked) [VI-8]	< 100 nM
CCN1CCN(CCCOc2cccc(Nc3nccc(-c4sc(SC)c(C#N)c4C4CCCCC4)n3)c2)CC1 [VI-9]	< 100 nM
CSc1sc(-c2ccnc(Nc3cccc(OCCCN4CCNCC4)c3)n2)c(C2CCCCC2)c1C#N [VI-10]	< 100 nM
CSc1sc(-c2ccnc(Nc3cccc(OCCCN4CCN(Cc5ccncc5)CC4)c3)n2)c(C2CCCCC2)c1C#N [VI-11]	< 100 nM
CSc1sc(-c2ccnc(Nc3cccc(OCCCN4CCCC4)c3)n2)c(C2CCCCC2)c1C#N [VI-12]	< 100 nM
CSc1sc(-c2ccnc(Nc3cccc(OCCCn4ccnc4)c3)n2)c(C2CCCCC2)c1C#N [VI-13]	< 100 nM
CSc1sc(-c2ccnc(Nc3cccc(OCCCn4cnc(C)c4)c3)n2)c(C2CCCCC2)c1C#N [VI-14]	< 100 nM
CSc1sc(-c2ccnc(Nc3cccc(OCCCN4CCOCC4)c3)n2)c(C2CCCCC2)c1C#N [VI-15]	< 100 nM
CSc1sc(-c2ccnc(Nc3cccc(OCCCN4CCSCC4)c3)n2)c(C2CCCCC2)c1C#N [VI-16]	< 100 nM
CSc1sc(-c2ccnc(Nc3cccc(OCCCN4CCSC4)c3)n2)c(C2CCCCC2)c1C#N [VI-17]	< 100 nM
CSc1sc(-c2ccnc(Nc3cccc(OCCCO)c3)n2)c(-c2cccnc2)c1C#N [VI-121]	100 to 1000 nM
CSc1sc(-c2ccnc(Nc3cccc(OCCCN4CCCC4)c3)n2)c(-c2cccnc2)c1C#N [VI-122]	< 100 nM
CSc1sc(-c2ccnc(Nc3cccc(OCCCN4CCNCC4)c3)n2)c(-c2cccnc2)c1C#N [VI-123]	100 to 1000 nM
CSc1sc(-c2ccnc(Nc3cccc(OCCCO)c3)n2)c(-c2cccc(OCc3ccccc3)c2)c1C#N [VI-124]	100 to 1000 nM
CSc1sc(-c2ccnc(Nc3cccc(OCCCN4CCNCC4)c3)n2)c(-c2cccc(OCc3ccccc3)c2)c1C#N [VI-125]	100 to 1000 nM
CSc1sc(-c2ccnc(Nc3cccc(OCCCN4CCN(CCO)CC4)c3)n2)c(-c2cccc(OCc3ccccc3)c2)c1C#N [VI-126]	100 to 1000 nM
CSc1sc(-c2ccnc(Nc3cccc(OCCCN4CCC(CO)CC4)c3)n2)c(-c2cccc(OCc3ccccc3)c2)c1C#N [VI-127]	100 to 1000 nM
CSc1sc(-c2ccnc(Nc3cccc(OCCCN4CCN(CCO)CC4)c3)n2)c(-c2cccc(O)c2)c1C#N [VI-128]	< 100 nM
CSc1sc(-c2ccnc(Nc3cccc(OCCCN4CCC(CO)CC4)c3)n2)c(-c2cccc(O)c2)c1C#N [VI-129]	< 100 nM
CSc1sc(-c2ccnc(Nc3cccc(NC(=O)CCN4CCCCC4)c3)n2)c(-c2cccnc2)c1C#N [VI-131]	< 100 nM
CSc1sc(-c2ccnc(Nc3cccc(NC(=O)Cc4ccccn4)c3)n2)c(-c2cccnc2)c1C#N [VI-136]	< 100 nM
CSc1sc(-c2ccnc(Nc3cccc(NC(=O)Cc4csc(N)n4)c3)n2)c(-c2cccnc2)c1C#N [VI-137]	< 100 nM
CSc1sc(-c2ccnc(Nc3cccc(NC(=O)CC4CC4)c3)n2)c(-c2cccnc2)c1C#N [VI-138, 3-cyano-4-(3-pyridyl)-5-[2-(3-N-cyclopropylacetamido)-aminophenylamino]-pyrimidin-4-yl-2-thiomethyl thiophene]	< 100 nM
CSc1sc(-c2ccnc(Nc3cccc(NC(=O)CCC4NC(=O)CNC4=O)c3)n2)c(-c2cccnc2)c1C#N (centres unmarked) [VI-139]	< 100 nM
CCN(CC)CCC(=O)Nc1cccc(Nc2nccc(-c3sc(SC)c(C#N)c3-c3cccnc3)n2)c1 [VI-140]	< 100 nM

Results, then the compound that gave them:

Ki	SMILES
< 100 nM	CSc1sc(-c2nc(Nc3cccc(N)c3)ncc2C)c(C2CCCCC2)c1C#N [Compound V-8, 5-[2-(3-Aminophenylamino)-5-methyl-pyrimidin-4-yl]-4-cyclohexyl-2-methylsulfanyl-thiophene-3-carbonitrile]
< 100 nM	CSc1sc(-c2nc(Nc3cccc(O)c3)ncc2C)c(-c2cccnc2)c1C#N [Compound V-24]
< 100 nM	CSc1sc(-c2ccnc(Nc3cccc(S(N)(=O)=O)c3)n2)c(-c2ccccc2)c1C#N [IIa-38, 3-[4-(4-cyano-5-methylsulfanyl-3-phenyl-thiophen-2-yl)-pyrimidin-2-ylamino]-benzenesulfonamide]
< 100 nM	N#Cc1c(SCc2ccc(O)cc2)sc(-c2ccnc(Nc3ccccc3)n2)c1-c1ccccc1 [IIa-39, 2-(4-Hydroxy-benzylsulfanyl)-4-phenyl-5-(2-phenylamino-pyrimidin-4-yl)-thiophene-3-carbonitrile]
< 100 nM	CSc1sc(-c2ccnc(Nc3cccc(O)c3)n2)c(-c2ccccc2)c1C#N [IIa-40, 5-[2-(3-Hydroxy-phenylamino)-pyrimidin-4-yl]-2-methylsulfanyl-4-phenyl-thiophene-3-carbonitrile]
< 100 nM	CSc1sc(-c2ccnc(Nc3cccc(O)c3)n2)c(-c2cccc(-c3ccncc3)c2)c1C#N [IIa-105, 5-[2-(3-Hydroxy-phenylamino)-pyrimidin-4-yl]-2-methylsulfanyl-4-(3-pyridin-4-yl-phenyl)-thiophene-3-carbonitrile]
< 100 nM	CSc1sc(-c2ccnc(Nc3cccc(OCCCN(C)CCO)c3)n2)c(C2CCCCC2)c1C#N [VI-1]
< 100 nM	COCCNCCCOc1cccc(Nc2nccc(-c3sc(SC)c(C#N)c3C3CCCCC3)n2)c1 [VI-2]
< 100 nM	CSc1sc(-c2ccnc(Nc3cccc(OCCCNCCO)c3)n2)c(C2CCCCC2)c1C#N [VI-3]
< 100 nM	CSc1sc(-c2ccnc(Nc3cccc(OCCCN4CCC(O)CC4)c3)n2)c(C2CCCCC2)c1C#N [VI-4]
< 100 nM	CSc1sc(-c2ccnc(Nc3cccc(OCCCN4CCC(CO)CC4)c3)n2)c(C2CCCCC2)c1C#N [VI-5]
< 100 nM	CSc1sc(-c2ccnc(Nc3cccc(OCCCN4CCC[C@H]4CO)c3)n2)c(C2CCCCC2)c1C#N [VI-6]
< 100 nM	CSc1sc(-c2ccnc(Nc3cccc(OCCCN4CCN(CCO)CC4)c3)n2)c(C2CCCCC2)c1C#N [VI-7]

Source: patent publication US6642227B2, “Inhibitors of c-Jun N-terminal kinases (JNK) and other protein kinases” (Vertex Pharmaceuticals Incorporated, priority 2001, dated 2003)
